Experimental data as given in US4395400A, “Nonapeptide, a process for its preparation, an agent containing it and its use” (Hoechst Aktiengesellschaft, priority 1980, dated 1983).

Tests used:
[1] = system: gonadoliberin biological action; settings: D-aminoacid in position 6 with tert.-butyl type protective group; cited from earlier work
[2] = absorption from the gastro-intestinal tract; assay type: in vivo; settings: humans
Protocol: The preferred method of administration in humans is intranasal administration, since absorption of the compound from the gastro-intestinal tract is only slight and parenteral administration is inappropriate for the patient. About 0.1 ml of a buffer solution, in which the necessary quantity of the active compound is dissolved, is sprayed into the nose via a spray jet, by means of a dosing atomizer.

[3] = solubility in aqueous buffer solutions; assay type: physicochemical
Excerpt: This makes the compound suitable for intranasal administration, for which, as shown by experience, solubility can be the limiting factor.

absorption from the gastro-intestinal tract [2]	solubility in aqueous buffer solutions ([3]; aqueous buffer solutions)	solubility compared with other gonadoliberin analogs ([3]; versus analogs of comparable effectiveness, particularly the D-Trp^6 or D-His(Bzl)^6 analogs)	Structure (SMILES)	biological action of position-6 substituted gonadoliberin derivative [1]
–	–	–	CC(C)(C)OC[C@@H](N)C(=O)O [O-tert.-butyl-D-serine]	strongest biological action
only slight	good solubility	appreciably greater	CCNC(=O)[C@@H]1CCCN1C(=O)[C@H](CCCNC(=N)N)NC(=O)[C@H](CC(C)C)NC(=O)[C@@H](CCCC(=O)OC(C)(C)C)NC(=O)[C@H](Cc1ccc(O)cc1)NC(=O)[C@H](CO)NC(=O)[C@H](Cc1c[nH]c2ccccc12)NC(=O)[C@H](Cc1c[nH]cn1)NC(=O)[C@@H]1CCC(=O)N1 [nonapeptide]	–
